Results as given in patent EP0049968A1, “Pharmaceutical compositions” (priority 1980, dated 1982).
Like-named read-outs stand apart in the source and are kept apart here.

Experiments:
Format in all cases: cell-based
[1] = system: Proteus mirabilis C889; assay: MIC of compound (i) alone and in the presence of compound (iv), serial dilution in nutrient agar
Protocol: (§1) Activities of the compound (i) against a number of pathogenic organisms alone, and in the presence of 1.0, 2.5, 5.0 and 10 µg/ml of compound (iv).

[2] = system: E. coli; assay: as above
Protocol: as §1

[3] = system: Serratia marcescens US39; assay: as above
Protocol: as §1

[4] = system: Staphylococcus aureus Russell; assay: as above
Protocol: as §1

[5] = system: Pseudomonas aeruginosa Dalgleish; assay: as above
Protocol: as §1

[6] = system: Klebsiella aerogenes A; assay: as above
Protocol: as §1

[7] = system: highly resistant strains of Pseudomonas aeruginosa (producing both a plasmid-and chromosomally-mediated β-lactamase); assay: MIC of compound (i) alone and in combination with compound (iii), Pseudomonas aeruginosa strains; details: for MIC: Pseudomonas aeruginosa

CC1(C)S[C@@H]2[C@H](NC(=O)[C@H](NC(=O)Nc3cnc(Nc4ccc(S(N)(=O)=O)cc4)nc3O)c3ccc(O)cc3)C(=O)N2[C@H]1C(=O)O [compound (i)]
MIC (μg/ml) for compound (i) ([1]; compound (iv) 0 μg/ml (alone)): >100 µg/mL
MIC (μg/ml) for compound (i) ([1]; compound (iv) 1.0 μg/ml): 0.5 µg/mL
MIC (μg/ml) for compound (i) ([1]; compound (iv) 2.5 μg/ml): 0.2 µg/mL
MIC (μg/ml) for compound (i) ([1]; compound (iv) 5.0 μg/ml): 0.1 µg/mL
MIC (μg/ml) for compound (i) ([1]; compound (iv) 10 μg/ml): 0.1 µg/mL
MIC (μg/ml) for compound (i) ([2]; E. coli JT4 R+, compound (iv) 0 μg/ml (alone)): >100 µg/mL
MIC (μg/ml) for compound (i) ([2]; E. coli JT4 R+, compound (iv) 1.0 μg/ml): 10 µg/mL
MIC (μg/ml) for compound (i) ([2]; E. coli JT4 R+, compound (iv) 2.5 μg/ml): 2.5 µg/mL
MIC (μg/ml) for compound (i) ([2]; E. coli JT4 R+, compound (iv) 5.0 μg/ml): 1.0 µg/mL
MIC (μg/ml) for compound (i) ([2]; E. coli JT4 R+, compound (iv) 10 μg/ml): 0.5 µg/mL
MIC (μg/ml) for compound (i) ([2]; E. coli JT39 R+, compound (iv) 0 μg/ml (alone)): >100 µg/mL
MIC (μg/ml) for compound (i) ([2]; E. coli JT39 R+, compound (iv) 1.0 μg/ml): 1.0 µg/mL
MIC (μg/ml) for compound (i) ([2]; E. coli JT39 R+, compound (iv) 2.5 μg/ml): 0.5 µg/mL
MIC (μg/ml) for compound (i) ([2]; E. coli JT39 R+, compound (iv) 5.0 μg/ml): 0.5 µg/mL
MIC (μg/ml) for compound (i) ([2]; E. coli JT39 R+, compound (iv) 10 μg/ml): 0.1 µg/mL
MIC (μg/ml) for compound (i) ([3]; compound (iv) 0 μg/ml (alone)): 50 µg/mL
MIC (μg/ml) for compound (i) ([3]; compound (iv) 1.0 μg/ml): 0.5 µg/mL
MIC (μg/ml) for compound (i) ([3]; compound (iv) 2.5 μg/ml): 1.0 µg/mL
MIC (μg/ml) for compound (i) ([3]; compound (iv) 5.0 μg/ml): 2.5 µg/mL
MIC (μg/ml) for compound (i) ([3]; compound (iv) 10 μg/ml): 5.0 µg/mL
MIC (μg/ml) for compound (i) ([4]; compound (iv) 0 μg/ml (alone)): 50 µg/mL
MIC (μg/ml) for compound (i) ([4]; compound (iv) 1.0 μg/ml): 2.5 µg/mL
MIC (μg/ml) for compound (i) ([4]; compound (iv) 2.5 μg/ml): 2.5 µg/mL
MIC (μg/ml) for compound (i) ([4]; compound (iv) 5.0 μg/ml): 1.0 µg/mL
MIC (μg/ml) for compound (i) ([4]; compound (iv) 10 μg/ml): 1.0 µg/mL
MIC (μg/ml) for compound (i) ([5]; inoculum 10^-2, compound (iv) 0 μg/ml (alone)): 50 µg/mL
MIC (μg/ml) for compound (i) ([5]; inoculum 10^-2, compound (iv) 1.0 μg/ml): 2.5 µg/mL
MIC (μg/ml) for compound (i) ([5]; inoculum 10^-2, compound (iv) 2.5 μg/ml): 1.0 µg/mL
MIC (μg/ml) for compound (i) ([5]; inoculum 10^-2, compound (iv) 5.0 μg/ml): 1.0 µg/mL
MIC (μg/ml) for compound (i) ([5]; inoculum 10^-2, compound (iv) 10 μg/ml): 2.5 µg/mL
MIC (μg/ml) for compound (i) ([5]; inoculum Undiluted, compound (iv) 0 μg/ml (alone)): >100 µg/mL
MIC (μg/ml) for compound (i) ([5]; inoculum Undiluted, compound (iv) 1.0 μg/ml): 10 µg/mL
MIC (μg/ml) for compound (i) ([5]; inoculum Undiluted, compound (iv) 2.5 μg/ml): 5.0 µg/mL
MIC (μg/ml) for compound (i) ([5]; inoculum Undiluted, compound (iv) 5.0 μg/ml): 5.0 µg/mL
MIC (μg/ml) for compound (i) ([5]; inoculum Undiluted, compound (iv) 10 μg/ml): 10 µg/mL
MIC (μg/ml) for compound (i) ([6]; compound (iv) 0 μg/ml (alone)): 5.0 µg/mL
MIC (μg/ml) for compound (i) ([6]; compound (iv) 1.0 μg/ml): 0.05 µg/mL
MIC (μg/ml) for compound (i) ([6]; compound (iv) 2.5 μg/ml): 0.05 µg/mL
MIC (μg/ml) for compound (i) ([6]; compound (iv) 5.0 μg/ml): 0.05 µg/mL
MIC (μg/ml) for compound (i) ([6]; compound (iv) 10 μg/ml): 0.05 µg/mL
MIC ([7]; read-out: MIC µg/ml compound (i) alone): > 160 µg/mL
MIC ([7]; read-out: MIC µg/ml compound (i) alone, Geometric mean): > 160 µg/mL
MIC µg/ml compound (i) compound (iii) (µg/ml) 1, Geometric mean ([7]; geometric mean of 6 Pseudomonas aeruginosa strains, with compound (iii) 1 µg/ml, 95% confidence limits (13.7-58.5)): 28.3 µg/mL
MIC µg/ml compound (i) compound (iii) (µg/ml) 2, Geometric mean ([7]; geometric mean of 6 Pseudomonas aeruginosa strains, with compound (iii) 2 µg/ml, 95% confidence limits (4.7-21.4)): 10 µg/mL
MIC µg/ml compound (i) compound (iii) (µg/ml) 5, Geometric mean ([7]; geometric mean of 6 Pseudomonas aeruginosa strains, with compound (iii) 5 µg/ml, 95% confidence limits (3.1-12.9)): 6.1 µg/mL
MIC µg/ml compound (i) compound (iii) (µg/ml) 10, Geometric mean ([7]; geometric mean of 6 Pseudomonas aeruginosa strains, with compound (iii) 10 µg/ml, 95% confidence limits (2.7-14.6)): 6.3 µg/mL
MIC µg/ml compound (i) alone ([7]; strain 1822): >160 µg/mL
MIC µg/ml compound (i) compound (iii) (µg/ml) 1 ([7]; strain 1822, with compound (iii) 1 µg/ml): 40 µg/mL
MIC µg/ml compound (i) compound (iii) (µg/ml) 2 ([7]; strain 1822, with compound (iii) 2 µg/ml): 5 µg/mL
MIC µg/ml compound (i) compound (iii) (µg/ml) 5 ([7]; strain 1822, with compound (iii) 5 µg/ml): 2.5 µg/mL
MIC µg/ml compound (i) compound (iii) (µg/ml) 10 ([7]; strain 1822, with compound (iii) 10 µg/ml): 2.5 µg/mL
MIC µg/ml compound (i) compound (iii) (µg/ml) 1 ([7]; strain Dalgleish, with compound (iii) 1 µg/ml): 20 µg/mL
MIC µg/ml compound (i) compound (iii) (µg/ml) 2 ([7]; strain Dalgleish, with compound (iii) 2 µg/ml): 10 µg/mL
MIC µg/ml compound (i) compound (iii) (µg/ml) 5 ([7]; strain Dalgleish, with compound (iii) 5 µg/ml): 5 µg/mL
MIC µg/ml compound (i) compound (iii) (µg/ml) 10 ([7]; strain Dalgleish, with compound (iii) 10 µg/ml): 10 µg/mL
MIC µg/ml compound (i) alone ([7]; strain FR6): >160 µg/mL
MIC µg/ml compound (i) compound (iii) (µg/ml) 1 ([7]; strain FR6, with compound (iii) 1 µg/ml): 80 µg/mL
MIC µg/ml compound (i) compound (iii) (µg/ml) 2 ([7]; strain FR6, with compound (iii) 2 µg/ml): 40 µg/mL
MIC µg/ml compound (i) compound (iii) (µg/ml) 5 ([7]; strain FR6, with compound (iii) 5 µg/ml): 20 µg/mL
MIC µg/ml compound (i) compound (iii) (µg/ml) 10 ([7]; strain FR6, with compound (iii) 10 µg/ml): 10 µg/mL
MIC µg/ml compound (i) alone ([7]; strain FR13): >160 µg/mL
MIC µg/ml compound (i) compound (iii) (µg/ml) 1 ([7]; strain FR13, with compound (iii) 1 µg/ml): 40 µg/mL
MIC µg/ml compound (i) compound (iii) (µg/ml) 2 ([7]; strain FR13, with compound (iii) 2 µg/ml): 10 µg/mL
MIC µg/ml compound (i) compound (iii) (µg/ml) 5 ([7]; strain FR13, with compound (iii) 5 µg/ml): 5 µg/mL
MIC µg/ml compound (i) compound (iii) (µg/ml) 10 ([7]; strain FR13, with compound (iii) 10 µg/ml): 2.5 µg/mL
MIC µg/ml compound (i) alone ([7]; strain Horton): >160 µg/mL
MIC µg/ml compound (i) compound (iii) (µg/ml) 1 ([7]; strain Horton, with compound (iii) 1 µg/ml): 20 µg/mL
